Measured values reported in patent US8680282B2, “Cyclic inhibitors of carnitine palmitoyltransferase and treating cancer” (University Health Network, priority 2007, dated 2014).

How the values were obtained:
Assay in all cases: Cancer cell growth inhibition, SRB assay
Type in all cases: cell-based, human
[1] = tested on: SW480; conditions: Homo sapiens, 144 h; SW480 (Colon); SRB at Day 6; triplicate
[2] = tested on: A172; conditions: Homo sapiens, A 172, 144 h; A172 (Brain); SRB at Day 6; triplicate
Description: (§1) Human cancer cells (MCF-7, H358, H460, HCT116 p53^+/+, HCT116 p53^−/−, A172, PC-3, DU-145 and SW626) were maintained in DMEM medium containing 10% Fetal Bovine Serum (FBS) (Invitrogen, Burlington, ON, Canada) and normal cells HMEC, 184A1, NHBE and PrEC were cultured in MEGM, MEGM plus transferring and cholera toxin, BEGM and PrEGM supplemented with various growth factors (Cambrex, Charles city, Iowa, USA), respectively.
(§2) Compounds of Examples S1 to S30, and 4-(carboxymethyl)-4-(6-(3-hexyloxy)phenoxy)hexanoamido)-1,1-dimethylpiperidinium 2,2,2-trifluoroactate (“Compound A”) were tested in this example. Each of the tested compounds was dissolved in DMSO and further diluted in cell culture medium for the experiments performed. Cells were seeded into 96-well plates with 1,500-5,000 cells/well according to cell growth rate. After 24 h, DMEM medium containing 10% FBS were changed to DMEM containing 3% FBS for cancer cells. The compound was added into the cell culture at the indicated concentrations, and the final concentration of DMSO was adjusted to a final concentration of 0.1%. Cell viability was assessed by Sulforhodamine B (SRB) assay at Day 6.
(§3) Sulforhodamine B (SRB) (Sigma, Oakville, ON, Canada) is a water-soluble dye that binds to the basic amino acids of the cellular proteins. Thus, colorimetric measurement of the bound dye provides an estimate of the total protein mass that is related to the cell number. The cells were fixed in situ by gently aspirating off the culture media and adding 50 ul of cold 10% Tri-chloroacetic Acid (TCA) per well and incubated at 4° C. for 30-60 min. The plates were washed five times with water and allowed to air dry for 5 min. 50 ul of 0.4% (w/v) SRB dissolved in 1% (v/v) acetic acid were added into each well, plates were then incubated at RT for 30 min for staining, washed four times with 1% acetic acid to remove any unbound dye and then allowed to air dry for 5 min. Stain was solubilized with 100 ul of 10 mM Tris pH 10.5 per well. Absorbance was read at 570 nm on a spectrophotometer. GI50 (compound concentration required for 50% of growth inhibition) was calculated using GraphPad Prism 4.0 software (GraphPad Software, Inc., San Diego, Calif., USA). Growth inhibition (%) was determined as percentage of cells remaining compared to the DMSO-treated cells as control.

[3] = tested on: PC-3; conditions: Homo sapiens, 144 h; PC-3 (Prostate); SRB at Day 6; triplicate
Description: as §1, §2, §3

[4] = tested on: A549; conditions: Homo sapiens, 144 h; A549 (Lung); SRB at Day 6; triplicate
[5] = tested on: HCT-15; conditions: Homo sapiens, 144 h; HCT-15 (Colon); SRB at Day 6; triplicate
[6] = tested on: SW626; conditions: Homo sapiens, 144 h; SW626 (Ovarian); SRB at Day 6; triplicate
Description: as §1, §2, §3

[7] = tested on: MCF-7; conditions: Homo sapiens, MCF7, 144 h; MCF-7 (Breast); SRB at Day 6; triplicate
Description: as §1, §2, §3

CCCCCCCCc1ccc(N(C)S(=O)(=O)NC2(CC(=O)O)CCC[N+](C)(C)C2)cc1 (stereo not shown) [Example S30, 3-(carboxymethyl)-1,1-dimethyl-3-(N-methyl-N-(4-octylphenyl)-sulfamoylamino)piperidinium 2,2,2-trifluoroacetate]
GI50 [1]: 3.5 µM | GI50 [2]: 0.6 µM | GI50 [3]: 0.7 µM | GI50 [4]: 1 µM | GI50 [5]: 14 µM | GI50 [6]: 21 µM | GI50 [7]: 3.1 µM

CCCCCCCCc1ccc(NS(=O)(=O)NC2(CC(=O)O)CC[N+](C)(C)CC2)cc1 [Example S8, 4-(carboxymethyl)-1,1-dimethyl-4-(N-(4-octylphenyl)sulfamoylamino)piperidinium 2,2,2-trifluoroacetate]
GI50 [1]: 2.8 µM | GI50 [2]: 2.2 µM | GI50 [3]: 1.7 µM | GI50 [4]: 10 µM | GI50 [5]: 9 µM | GI50 [6]: 15 µM | GI50 [7]: 2 µM

CCCCCCCCc1ccc(NC(=O)NC2(CC(=O)O)CCC[N+](C)(C)C2)cc1 (stereo not shown) [Example S10, 3-(carboxymethyl)-1,1-dimethyl-3-(3-(4-octylphenyl)ureido)-piperidinium 2,2,2-trifluoroacetate]
GI50 [1]: 0.7 µM | GI50 [2]: 4.6 µM | GI50 [3]: 0.9 µM | GI50 [4]: 73 µM | GI50 [5]: 16 µM | GI50 [6]: 2.7 µM | GI50 [7]: 5.1 µM

CCCCCCCCc1ccc(NS(=O)(=O)NC2(CC(=O)O)CCCN(C)C2)cc1 (stereo not shown) [Example S15, 3-(carboxymethyl)-1-methyl-3-(N-(4-octylphenyl)sulfamoylamino)-piperidinium 2,2,2-trifluoroacetate]
GI50 [1]: 36 µM | GI50 [2]: 2.7 µM | GI50 [3]: 2.8 µM | GI50 [4]: 7.5 µM | GI50 [5]: 32 µM | GI50 [6]: 33 µM | GI50 [7]: 15 µM
